{"source": "patent US20080261911A1", "about": "“Uses of diphenyl/diphenylamine carboxylic acids” (priority 2006, published 2008)", "key": {"[1]": {"tested_on": "Sp1, Sp3, and Sp4 proteins", "experiment": "Western blot of Sp1, Sp3 and Sp4 protein expression in Panc-1 cells", "assay_type": "cell-based", "conditions": "for Sp1, Sp3, and Sp4 protein expression / order of potency for decreased expression of Sp1, Sp3, and Sp4 proteins: 50 μM; for Sp1, Sp3, and Sp4 protein expression: Western blot, vs DMSO"}, "[2]": {"tested_on": "VEGF promoter constructs pVEGF1 and pVEGF2", "experiment": "VEGF promoter (pVEGF1/pVEGF2) luciferase transactivation in Panc-1 cells", "assay_type": "cell-based", "procedure": "Transfection of Panc-1 cells with pVEGF1 and pVEGF2 and treatment with 50 μM ampiroxicam and tolfenamic acid (FIGS. 2A, 2B) or diclofenac sodium (FIGS. 2C, 2D) with pVEGF1 or pVEGF2 constructs. Cells were transfected with pVEGF1 or pVEGF2 treated with DMSO, 50 μM ampiroxicam, tolfenamic acid, or diclofenac sodium, and luciferase activity determined. Transfection of L3.6pl cells with pVEGF1 (FIG. 2E) or pVEGF2 constructs (FIG. 2F). […] Panc-1 cells were transfected with pVEGF2, treated with 20, 40, 60 or 80 μM ampiroxicam or tolfenamic acid, and luciferase determined. Results presented herein are means ±SE for three separate determinations per treatment group, and significant (p<0.05) decrease in luciferase activity is indicated by an asterisk.\nCells are cultured in 6-well plates in 2 ml of DME/F12 medium supplemented with 5% fetal bovine serum. After 16-20 hr when cells are 50-60% confluent, reporter gene constructs are transfected using LIPOFECTAMINE™ reagent (Invitrogen, Carlsbad, Calif.). The effects of the selective non-steroidal anti-inflammatory drugs on transactivation are investigated in Panc1 and L3.6pl cells co-transfected with different VEGF constructs (500 ng). […] For proteasome inhibitor experiments, cells will be co-treated with 2 μM lactacystin, and for electrophoretic mobility shift assay (EMSA), nuclear extracts from Panc1 and L3.6pl cells are isolated as described, and aliquots will be stored at −80° C. until used (Abdelrahim et al, 2004; Abdelrahim et al, 2005).\nPrevious studies have shown COX-2 inhibitors or small interfering RNAs for Sp proteins decreased vascular endothelial growth factor expression in colon and pancreatic cells (Abdelrahim et al, 2005; Baker et al, 2002; Masferrer et al, 2000; Bouwman et al, 2002). The effects of DMSO, 50 μM tolfenamic acid and 50 μM ampiroxicam on vascular endothelial growth factor expression were initially investigated in Panc-1 cells transfected with the pVEGF1 and pVEGF2 constructs, which contain −2018 to +50 and −131 to +54 VEGF promoter inserts, respectively (FIGS. 2A and 2B)."}, "Panc-1 cells": {"tested_on": "Panc-1 cells", "experiment": "Cell proliferation assay, Panc-1 cells", "assay_type": "cell-based", "conditions": "for growth of Panc-1 pancreatic cancer cells: different concentrations, 6 days, cell counting", "procedure": "FIGS. 6A-6E show comparative effects of non-steroidal anti-inflammatory drugs on Panc-1 cell proliferation and Sp protein expression. Effects of tolfenamic acid (FIG. 6A), ampiroxicam (FIG. 6B), naproxen (FIG. 6C), and diclofenac sodium (FIG. 6D) on Panc-1 cell proliferation. Panc-1 cells were treated with different concentrations of non-steroidal anti-inflammatory drugs for 6 days, and the number of cells were determined on days 2, 4, and 6 by cell counting techniques. […] Panc-1 cells were treated with DMSO, 150 μM ampiroxicam, 150 μM naproxen, and 50 μM tolfenamic acid for 48 hr, and levels of Sp proteins and the cleaved poly (ADP-ribose) polymerase (PARP) protein were determined in whole cell lysates by Western blot analysis. […] Panc1, Panc28 and L3.6pl cells are seeded in DMEM/F12 media with 5% FBS and treated the next day with either vehicle (DMSO) or with the indicated compounds' concentrations. Cells are counted at the indicated times using a Z1™ COULTER COUNTER® cell counter. Each experiment is carried out in triplicate and results expressed as means ±SD for each determination."}, "[3]": {"tested_on": "orthotopically implanted human pancreatic L3.6p1 cancer cells", "experiment": "Orthotopic pancreatic tumor model in athymic nude mice", "conditions": "gemcitabine 50 mg/kg", "procedure": "Median tumor volumes (FIG. 8A) and weights (FIG. 8B) in athymic nude mice treated orthotopically with L3.6pl cells, and corn oil (control), tolfenamic acid (25 and 50 mg/kg), and gemcitabine (50 mg/kg) were determined. […] Tumors from the various treatment groups were analyzed for Sp1, Sp3, Sp4, and VEGF protein expression by Western blot analysis. […] Immunostaining is shown for VEGF (FIG. 8D), and CD31 (FIG. 8E). Pancreatic tumor sections from animals treated with solvent (control), gemcitabine (50 mg/kg) and tolfenamic acid (25 and 50 mg/kg) were immunostained with VEGF and CD31 antibodies.\nMale athymic nude mice (NCI-nu) are purchased from the Animal Production Area of the National Cancer Institute Frederick Cancer Research and Development Center, housed and maintained under specific pathogen-free conditions in accordance with current regulations and standards of the United States Department of Agriculture. Injection of L3.6pl cells (with greater than 90% viability is performed as previously described (Bruns et al, 1999). Seven days after implantation of tumor cells into the pancreas of each mouse, five mice are killed to confirm the presence of tumor lesions.\nMice (10 animals per treatment group) are randomized to receive one of the following treatments: (1) thrice weekly oral administrations of vehicle solution which will serve as a control group; (2) thrice weekly oral administrations of at least three non-steroidal anti-inflammatory drugs at doses of 10, 25, and 50 mg/kg/day; (3) twice weekly intraperitoneal injections of 50, 75, and 100 mg/kg/day gemcitabine alone; and (4) combinations of gemcitabine and non-steroidal anti-inflammatory drugs. Mice are sacrificed on day 35 and body weights measured. Primary tumors in the pancreas are excised, measured, weighed. For immunohistochemistry (IHC) and hematoxylin and eosin (H&E) staining procedures, one part of the tumor tissue is fixed in formalin and embedded in paraffin, and another part is embedded in TISSUE-TEK® O.C.T. compound, rapidly frozen in liquid nitrogen, and stored at −70° C. Visible liver metastases are counted with the aid of a dissecting microscope, and the tissues processed for hematoxylin and eosin staining.\nParaffin-embedded tissues are used for identification of Sp proteins, VEGFR2p27 and vascular endothelial growth factor. Tissue sections ([…] thick) are mounted on positively charged SUPERFROST slides (Fischer Scientific, Co, Houston, Tex.) and dried overnight. Sections are deparaffinized in xylene and treated with a graded series of alcohol [100, 95, and 80% ethanol (v/v) in double distilled H2O] and rehydrated in phosphate buffered saline (pH 7.5). Tissues are treated with pepsin (Biomeda) for 15 min at 37° C. and washed with phosphate buffered saline. A positive reaction is visualized by incubating the slides with stable 3,3′-diaminobenzidine for 10-20 min. Sections are rinsed with distilled water, counterstained with Gill's hematoxylin for 1 min, and mounted with UNIVERSAL MOUNT (Research Genetics). […] Tumor sample lysates are also examined by western blot analysis for the same proteins.\nThe potential anti-tumorigenic and anti-angiogenic activity of tolfenamic acid against pancreatic tumors was investigated in an orthotopic athymic nude mouse model. L3.6pl cells were used for this study based on their aggressive growth and production of liver metastases (Bruns et al, 1999; Dubois et al, 1998)."}, "[4]": {"tested_on": "cleaved poly (ADP-ribose) polymerase (PARP) protein", "experiment": "Apoptosis: cleaved PARP in Panc-1 cells, Western blot", "assay_type": "cell-based", "conditions": "150 μM, 48 hr", "quoted_text": "Cells are washed once with phosphate buffered saline PBS and collected by scraping in 200 μL of lysis buffer [50 mM HEPES, 0.5M sodium chloride, 1.5 mM magnesium chloride, 1 mM EGTA, 10% (v/v) glycerol, 1% Triton X-100, 5 μL/ml of Protease Inhibitor Cocktail (Sigma)]. The lysates from the cells are incubated on ice for 1 hr with intermittent vortexing followed by centrifugation at 40,000 g for 10 min at 4° C. Equal amounts of protein (60 μg) from each treatment group are diluted with loading buffer, boiled and loaded onto 10 and 12.5% SDS-polyacrylamide gel. […] Samples are electrophoresed, transferred to membranes, and proteins detected by incubation with polyclonal primary antibodies Sp1, Sp3, Sp4, HDAC, VEGF (a-20), c-Met, surviving, VEGF, cleaved PARP, and β-tubulin (H-235) followed by blotting with appropriate horseradish peroxidase-conjugated secondary antibody as previously described (Abdelrahim et al, 2004). After autoradiography, band intensities are determined by a scanning laser densitometer (Sharp Electronics Corporation, Mahwah, N.J.) using ZERO-D SCANALYTICS software (Scanalytics Corporation, Billerica, Mass.)."}, "[5]": {"tested_on": "Sp1, Sp3 and Sp4 in colon cancer cells", "conditions": "cited from earlier work"}, "[6]": {"conditions": "bi-weekly intraperitoneal from day 7, sacrificed day 35"}}, "data": [{"compound": "COc1ccc2c(c1)c(CC(=O)OCC(=O)O)c(C)n2C(=O)c1ccc(Cl)cc1", "note": "[acemetacin]", "values": [{"measurement": "Sp1, Sp3, and Sp4 protein expression", "setting": "[1]; 48 hr", "value": "had no effect"}]}, {"compound": "O=C(O)Cc1ccccc1Nc1c(Cl)cccc1Cl", "note": "[diclofenac sodium]", "values": [{"measurement": "luciferase activity, pVEGF1 and pVEGF2 constructs", "setting": "[2]; Panc-1 cells, 50 μM", "value": "decreased transactivation"}, {"measurement": "relative potency in Panc-1 growth inhibition", "setting": "Panc-1 cells; compared with ampiroxicam and naproxen", "value": "exhibited higher potencies"}, {"measurement": "growth of Panc-1 pancreatic cancer cells", "setting": "Panc-1 cells", "value": "decreased growth of Panc-1 pancreatic cancer cells"}, {"measurement": "order of potency for decreased expression of Sp1, Sp3, and Sp4 proteins", "setting": "[1]; 48 hr", "value": "tolfenamic acid>diclofenac˜diflunisal"}, {"measurement": "Sp1, Sp3, and Sp4 protein expression", "setting": "[1]; 48 hr", "value": "decreased expression of Sp1, Sp3, and Sp4 proteins"}]}, {"compound": "O=C(O)c1cc(-c2ccc(F)cc2F)ccc1O", "note": "[diflunisal]", "values": [{"measurement": "order of potency for decreased expression of Sp1, Sp3, and Sp4 proteins", "setting": "[1]; 48 hr", "value": "tolfenamic acid>diclofenac˜diflunisal"}, {"measurement": "Sp1, Sp3, and Sp4 protein expression", "setting": "[1]; 48 hr", "value": "decreased expression of Sp1, Sp3, and Sp4 proteins"}]}, {"compound": "O=C(O)CCC(=O)c1ccc(-c2ccccc2)cc1", "note": "[fenbuten]", "values": [{"measurement": "Sp1, Sp3, and Sp4 protein expression", "setting": "[1]; 48 hr", "value": "had no effect"}]}, {"compound": "Nc1ccn([C@@H]2O[C@H](CO)[C@@H](O)C2(F)F)c(=O)n1", "note": "[gemcitabine, 2′, 2′-difluorodeoxycitidine]", "values": [{"measurement": "immunostaining for vascular endothelial growth factor in tumor sections", "setting": "[3]", "value": "relatively greater staining"}, {"measurement": "Body Weight Median", "setting": "[3]; [6]", "value": 24, "unit": "g"}, {"measurement": "Incidence Liver metastasis", "setting": "[3]; [6]", "value": "did not affect the incidence of liver metastasis"}, {"measurement": "Pancreatic Tumor Incidence (positive mice/mice injected)", "setting": "[3]; [6]", "value": "10/10"}, {"measurement": "Tumor Volume Median", "setting": "[3]; [6]", "value": 1186.8, "unit": "mm^3"}, {"measurement": "Tumor Weight Median", "setting": "[3]; [6]", "value": 0.8, "unit": "g"}, {"measurement": "Incidence Liver metastasis", "setting": "[3]; bi-weekly intraperitoneal from day 7, sacrificed day 35, listed as Gemcitabine", "value": "5/10"}]}, {"compound": "CC(C)Cc1ccc(C(C)C(=O)O)cc1", "note": "(centres unmarked) [ibuprofen]", "values": [{"measurement": "Sp1, Sp3, and Sp4 protein expression", "setting": "[1]; 48 hr", "value": "had no effect"}]}, {"compound": "CC(=O)N[C@@H](CSC(=O)[C@]1([C@@H](O)C(C)C)NC(=O)[C@H](C)[C@@H]1O)C(=O)O", "note": "[lactacystin]", "values": [{"measurement": "effect on tolfenamic acid-decreased transactivation of pVEGF2", "setting": "[2]; Panc-1 cells co-treated with tolfenamic acid and proteasome inhibitor", "value": "blocked in cells co-treated with lactacystin"}, {"measurement": "effect on tolfenamic acid-induced Sp1, Sp3, and Sp4 protein degradation", "setting": "[1]; 2 μM lactacystin plus 50 μM tolfenamic acid, 48 hr", "value": "significant inhibition of Sp1, Sp3, and Sp4 protein degradation"}]}, {"compound": "N#Cc1ccc(C(c2ccc(C#N)cc2)n2cncn2)cc1", "note": "[letrozole]", "values": [{"measurement": "Sp1, Sp3, and Sp4 protein expression", "setting": "[1]; 48 hr", "value": "had no effect"}]}, {"compound": "COc1ccc2cc([C@H](C)C(=O)O)ccc2c1", "note": "[naproxen]", "values": [{"measurement": "poly (ADP-ribose) polymerase cleavage", "setting": "[4]", "value": "only tolfenamic acid induced protein degradation and poly (ADP-ribose) polymerase cleavage"}, {"measurement": "growth of Panc-1 pancreatic cancer cells", "setting": "Panc-1 cells", "value": "decreased growth of Panc-1 pancreatic cancer cells"}, {"measurement": "Sp1, Sp3, and Sp4 protein expression", "setting": "[1]; 48 hr", "value": "had no effect"}, {"measurement": "Sp protein degradation", "setting": "[1]; 150 μM, 48 hr (concentration of comparable growth inhibition)", "value": "only tolfenamic acid induced protein degradation"}]}, {"compound": "CS(=O)(=O)Nc1ccc([N+](=O)[O-])cc1Oc1ccccc1", "note": "[nimesulide]", "values": [{"measurement": "levels of Sp1, Sp4 and Sp3", "setting": "[5]", "value": "decreased levels of Sp1 and Sp4 (but not Sp3)"}]}, {"compound": "Cc1ccc(C(=O)c2ccc(CC(=O)O)n2C)cc1", "note": "[tolmetin]", "values": [{"measurement": "Sp1, Sp3, and Sp4 protein expression", "setting": "[1]; 48 hr", "value": "had no effect"}]}]}
